Test results as given in ChEMBL document CHEMBL1138244, “Three-dimensional quantitative structure-activity relationships and activity predictions of human TRPV1 channel antagonists: comparative molecular field analysis and comparative molecular similarity index analysis of cinnamides” (J Med Chem, 2007).

Test: Inhibition of rat human chimera TRPV1 channel expressed in CHO cells
Assay type: cell-based

Row | IC50 [µM] | pIC50 | Structure (SMILES)
1 | > 40 | 4.4 | CC(=O)Nc1ccc(/C=C/C(=O)Nc2ccc3c(c2)OCCO3)cc1
2 | 2.33 | 5.63 | CC(=O)Oc1ccc(/C=C/C(=O)Nc2ccc3c(c2)OCCO3)cc1
3 | 0.419 | 6.38 | O=C(/C=C/c1ccc(C2CC2)cc1)Nc1ccc2c(c1)OCCO2
4 | 3.52 | 5.45 | C=Cc1ccc(/C=C/C(=O)Nc2ccc3c(c2)OCCO3)cc1
5 | 0.048 | 7.32 | CCC(C)(C)c1ccc(/C=C/C(=O)Nc2ccc3c(c2)OCCO3)cc1
6 | 0.509 | 6.29 | O=C(/C=C/c1ccc(I)cc1)Nc1ccc2c(c1)OCCO2
7 | 0.023 | 7.59 | CC(C)(C)c1ccc(/C=C/C(=O)Nc2ccc3c(c2)OCCO3)cc1 (stereo in doubt; 1)
8 | 0.136 | 6.87 | CC(C)(C)c1ccc(/C=C/C(=O)Nc2ccc3c(c2)OCCO3)cc1 (stereo in doubt; 91)

The remaining lines, values behind:

Row | Structure (SMILES) | IC50 [µM] | pIC50
9 | Cc1cccc(/C(=C/C(=O)Nc2ccc3c(c2)OCCO3)c2ccc(C(C)(C)C)cc2)c1 | 0.059 | 7.23
10 | CC(C)(C)c1ccc(/C(=C\C(=O)Nc2ccc3c(c2)OCCO3)c2ccc(Cl)cc2)cc1 | 0.042 | 7.37
11 | CC(C)(C)c1ccc(/C(=C\C(=O)Nc2ccc3c(c2)OCCO3)c2ccc(F)cc2)cc1 | 0.039 | 7.41
12 | O=C(/C=C/c1cccc(C(F)(F)F)c1)Nc1ccc2c(c1)OCCO2 | 1.21 | 5.92
13 | O=C(/C=C/c1cccc2ccccc12)Nc1ccc2c(c1)OCCO2 | 0.643 | 6.19
14 | O=C(/C=C/c1ccc(F)cc1F)Nc1ccc2c(c1)OCCO2 | 3.6 | 5.44
15 | Cc1ccc(C(=CC(=O)Nc2ccc3c(c2)OCCO3)c2ccc(C)cc2)cc1 | 0.247 | 6.61
16 | Cc1ccc(/C=C/C(=O)Nc2ccc3c(c2)OCCO3)cc1C | 0.455 | 6.34
17 | O=C(C=C(c1ccc(Br)cc1)c1ccc(Br)cc1)Nc1ccc2c(c1)OCCO2 | 0.061 | 7.22
18 | Cc1ccc(/C(=C/C(=O)Nc2ccc3c(c2)OCCO3)c2ccc(C(C)(C)C)cc2)cc1 | 0.093 | 7.03
19 | O=C(/C=C/c1ccc2ccccc2c1)Nc1ccc2c(c1)OCCO2 | 0.74 | 6.13
20 | O=C(/C=C/c1ccc(C(F)(F)F)c(F)c1)Nc1ccc2c(c1)OCCO2 | 0.129 | 6.89
21 | O=C(/C=C/c1cccc(OC(F)(F)F)c1)Nc1ccc2c(c1)OCCO2 | 1.62 | 6.79
